Source: patent US12558428B2, “Heterobifunctional compounds and their use in treating disease” (Halda Therapeutics OpCo, Inc., priority 2024, dated 2026)
Like-named read-outs stand apart in the source and are kept apart here.

Tests used:
Format in all cases: cell-based
[1] = system: T-Rex 293 cells having increased expression of estrogen receptor alpha protein; experiment: Cellular growth inhibition assay, T-Rex 293 cells, (+) doxycycline; conditions: T-Rex 293 cells with doxycycline (increased ERα expression), 72 hours, CellTiter-Glo, read-out: (+) Dox GI50
Outline: (§1)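 Viability read-out was CellTiter-Glo 2.0 luminescence after 72 h compound exposure, normalized to zero luminescence and fitted by four-parameter regression to give GI50. Cells were an ERα-inducible T-Rex 293 clone cultured with or without 3 ng/mL doxycycline in charcoal-stripped, phenol red-free medium.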

[2] = system: T-Rex 293 cells lacking increased expression of estrogen receptor alpha protein; experiment: Cellular growth inhibition assay, T-Rex 293 cells, (−) doxycycline; conditions: T-Rex 293 cells without doxycycline (lacking increased ERα expression), 72 hours, CellTiter-Glo, read-out: (−) Dox GI50
Outline: as §1

[3] = system: MCF7 cells (ATCC #HTB-22); experiment: Cellular growth inhibition assay, MCF7 cells purchased from ATCC; conditions: Table 8-A, MCF7 cells purchased from ATCC, six days, CellTiter-Glo, read-out: GI50
Outline: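 MCF7 cells in RPMI 1640 with 10% FBS and 0.2 U/ml insulin, seeded at 1,500 cells/well (ATCC) or 225 cells/well (ECACC). Compounds added 24 h later, then 6 days at 37° C. Viability by CellTiter-Glo 2.0 luminescence. GI50 from four-parameter fit.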

SMILES	GI50 ([1]; T-REx-293, 72 h, Table 7-A)	GI50 ([2]; T-REx-293, 72 h, Table 7-A)	GI50 ([3]; Homo sapiens, MCF7, 144 h)	GI50 ([1]; T-REx-293, 72 h, Table 7-B)	GI50 ([2]; T-REx-293, 72 h, Table 7-B)	GI50 ([1]; Table 7-A)	GI50 ([2]; Table 7-A)	GI50 [3]
Cc1sc2c(c1C)C(c1ccc(N3CC4(CCC(CN5CCC(c6ccc(C7=C(c8ccccc8)CCCc8cc(C(=O)O)ccc87)cc6)CC5)CC4)C3)cc1)=N[C@@H](C)c1nnc(C)n1-2 [IV-44]	< 50 nM	500 to 2500 nM	< 50 nM	–	–	–	–	–
Cc1sc2c(c1C)C(c1ccc(N3CC(O)(CN4CCN(CC5CN(c6ccc(C7=C(c8ccccc8)CCCc8cc(C(=O)O)ccc87)cc6)C5)CC4)C3)cc1)=N[C@@H](C)c1nnc(C)n1-2 [IV-45]	< 50 nM	< 50 nM	< 50 nM	–	–	–	–	–
Cc1sc2c(c1C)C(c1ccc(C3CN(CC4(O)CCN(CC5CN(c6ccc(C7=C(c8ccccc8)CCCc8cc(C(=O)O)ccc87)cc6)C5)CC4)C3)cc1)=N[C@@H](C)c1nnc(C)n1-2 [IV-46]	< 50 nM	500 to 2500 nM	50 to 500 nM	–	–	–	–	–
Cc1sc2c(c1C)C(c1ccc(N3CC4(CCC(CN5CCC(c6ccc(C7=C(c8ccccc8)CCCc8cc(O)ccc87)cc6)CC5)CC4)C3)cc1)=N[C@@H](C)c1nnc(C)n1-2 [IV-47]	< 50 nM	500 to 2500 nM	< 50 nM	–	–	–	–	–
Cc1sc2c(c1C)C(c1ccc(N3CCC(CN4CCN(c5ccc(C6=C(c7ccccc7Cl)CCCc7cc(C(=O)O)ccc76)c(F)c5)CC4)CC3)cc1)=N[C@@H](C)c1nnc(C)n1-2 [IV-48]	< 50 nM	500 to 2500 nM	< 50 nM	–	–	–	–	–
Cc1sc2c(c1C)C(c1ccc(N3CCC(CN4CCN(c5ccc(C6=C(c7ccccc7Cl)CCCc7cc(C(=O)O)ccc76)c(F)c5)CC4)CC3)cc1)=N[C@@H](Cc1ncco1)c1nnc(C)n1-2 [IV-49]	< 50 nM	500 to 2500 nM	< 50 nM	–	–	–	–	–
Cc1sc2c(c1C)C(c1ccc(N3CC4(CC(CN5CCN(c6ccc(C7=C(c8ccccc8)CCCc8cc(O)ccc87)cc6)CC5)C4)C3)cc1)=N[C@@H](C)c1nnc(C)n1-2 [IV-50]	< 50 nM	500 to 2500 nM	< 50 nM	–	–	–	–	–
Cc1sc2c(c1C)C(c1ccc(N3CCC(O)(CN4CCN(c5ccc(C6=C(c7cccc(Cl)c7)CCCc7cc(C(=O)O)ccc76)cc5)CC4)CC3)cc1)=N[C@@H](C)c1nnc(C)n1-2 [IV-51]	< 50 nM	500 to 2500 nM	< 50 nM	–	–	–	–	–
Cc1sc2c(c1C)C(c1ccc(N3CCC(O)(CN4CCN(c5ccc(C6=C(c7ccc(Cl)c(Cl)c7)CCCc7cc(C(=O)O)ccc76)cc5)CC4)CC3)cc1)=N[C@@H](C)c1nnc(C)n1-2 [IV-52]	50 to 500 nM	500 to 2500 nM	50 to 500 nM	–	–	–	–	–
Cc1sc2c(c1C)C(c1ccc(N3CCC(O)(CN4CCN(c5ccc(C6=C(c7cccc(Cl)c7Cl)CCCc7cc(C(=O)O)ccc76)cc5)CC4)CC3)cc1)=N[C@@H](C)c1nnc(C)n1-2 [IV-53]	< 50 nM	500 to 2500 nM	< 50 nM	–	–	–	–	–
Cc1sc2c(c1C)C(c1ccc(N3CC(CN4CCN(CC5CN(c6ccc(C7=C(c8ccccc8Cl)CCCc8cc(C(=O)O)ccc87)cc6)C5)CC4)C3)cc1)=N[C@@H](C)c1nnc(C)n1-2 [IV-54]	< 50 nM	50 to 500 nM	< 50 nM	–	–	–	–	–
COc1ccc(-c2sc3cc(OC)ccc3c2C(=O)c2ccc(OCCN3CCC4(CC3)CC(Oc3ccc(C5=N[C@@H](Cc6ncco6)c6nnc(C)n6-c6sc(C)c(C)c65)cc3)C4)cc2)cc1 [IV-55]	< 50 nM	500 to 2500 nM	< 50 nM	–	–	–	–	–
Cc1sc2c(c1C)C(c1ccc(N3CC4(CCC(CN5CCC(c6ccc(C7=C(c8ccccc8Cl)CCCc8cc(C(=O)O)ccc87)cc6)CC5)CC4)C3)cc1)=N[C@@H](C)c1nnc(C)n1-2 [IV-56]	< 50 nM	50 to 500 nM	< 50 nM	–	–	–	–	–
Cc1sc2c(c1C)C(c1ccc(N3CCC(O)(CN4CCN(c5ccc(C6=C(c7ccc(Cl)cc7)CCCc7cc(C(=O)O)ccc76)cc5)CC4)CC3)cc1)=N[C@@H](C)c1nnc(C)n1-2 [IV-57]	< 50 nM	500 to 2500 nM	< 50 nM	–	–	–	–	–
Cc1sc2c(c1C)C(c1ccc(N3CC4(CC(CN5CCN(c6ccc(C7=C(c8ccccc8Cl)CCCc8cc(C(=O)O)ccc87)c(F)c6)CC5)C4)C3)cc1)=N[C@@H](C)c1nnc(C)n1-2 [IV-58]	< 50 nM	500 to 2500 nM	< 50 nM	–	–	–	–	–
Cc1sc2c(c1C)C(c1ccc(N3CC4(CC(CN5CCN(c6ccc(C7=C(c8ccccc8Cl)CCCc8cc(C(=O)O)ccc87)cc6)CC5)C4)C3)cc1)=N[C@@H](C)c1nnc(C)n1-2 [IV-59]	< 50 nM	500 to 2500 nM	< 50 nM	–	–	–	–	–
Cc1sc2c(c1C)C(c1ccc(N3CCC(O)(CN4CCN(c5ccc(C6=C(c7ccccc7Cl)CCCc7cc(C(=O)O)ccc76)c(F)c5)CC4)CC3)cc1)=N[C@@H](Cc1ncco1)c1nnc(C)n1-2 [IV-60]	< 50 nM	50 to 500 nM	< 50 nM	–	–	–	–	–
Cc1sc2c(c1C)C(c1ccc(N3CCC(O)(CN4CCN(c5ccc(C6=C(c7ccccc7Cl)CCCc7cc(C(=O)O)ccc76)cc5)CC4)CC3)c(Cl)c1)=N[C@@H](C)c1nnc(C)n1-2 [IV-61]	< 50 nM	500 to 2500 nM	< 50 nM	–	–	–	–	–
Cc1sc2c(c1C)C(c1ccc(C3CN(CC4CC(CN5CC(c6ccc(C7=C(c8ccccc8)CCCc8cc(C(=O)O)ccc87)cc6)C5)C4)C3)cc1)=N[C@@H](C)c1nnc(C)n1-2 (stereo partly drawn) [IV-62]	< 50 nM	500 to 2500 nM	< 50 nM	–	–	–	–	–
Cc1sc2c(c1C)C(c1ccc(N3CCC(O)(CN4CCN(c5ccc(C6=C(c7ccccc7)CCCc7cc(B(O)O)ccc76)cc5)CC4)CC3)cc1)=N[C@@H](C)c1nnc(C)n1-2 [IV-63]	< 50 nM	500 to 2500 nM	< 50 nM	–	–	–	–	–
Cc1cc(C2=N[C@@H](C)c3nnc(C)n3-c3sc(C)c(C)c32)ccc1N1CC(CN2CCN(CC3CN(c4ccc(C5=C(c6ccc(Cl)cc6)CCCc6cc(C(=O)O)ccc65)cc4)C3)CC2)C1 [IV-64]	50 to 500 nM	500 to 2500 nM	< 50 nM	–	–	–	–	–
COc1cc(N2CCN(CC3(O)CCN(c4ccc(C5=N[C@@H](C)c6nnc(C)n6-c6sc(C)c(C)c65)cc4)CC3)CC2)ccc1C1=C(c2ccccc2Cl)CCCc2cc(C(=O)O)ccc21 [IV-65]	–	–	50 to 500 nM	< 50 nM	500 to 2500 nM	–	–	–
COc1ccc(-c2sc3cc(OC)ccc3c2C(=O)c2ccc(OCCN3CCC(CCCCOc4ccc(C5=N[C@@H](Cc6ncco6)c6nnc(C)n6-c6sc(C)c(C)c65)cc4)CC3)cc2)cc1 [V-1]	50 to 500 nM	50 to 500 nM	50 to 500 nM	–	–	–	–	–
COc1ccc(-c2sc3cc(OC)ccc3c2C(=O)c2ccc(OCCN3CCC4(CC3)CC(Oc3ccc(C5=N[C@@H](Cc6ncco6)c6nnc(C)n6-c6sc(C)c(C)c65)cc3)C4)cc2)cc1 [V-2]	–	–	–	–	–	50 to 500 nM	500 to 2500 nM	50 to 500 nM
COc1ccc(-c2sc3cc(OC)ccc3c2C(=O)c2ccc(OCCN3CCC(CCOc4ccc(C5=N[C@@H](Cc6ncco6)c6nnc(C)n6-c6sc(C)c(C)c65)cc4)CC3)cc2)cc1 [V-3]	50 to 500 nM	50 to 500 nM	50 to 500 nM	–	–	–	–	–
CC1=C(c2c(F)cc(F)cc2F)[C@@H](c2ccc(OCCN3CCCC4(CCN(c5ccc(C6=N[C@@H](C)c7nnc(C)n7-c7sc(C)c(C)c76)cc5)CC4)C3)cc2)Oc2ccc(O)cc21 [V-4]	500 to 2500 nM	500 to 2500 nM	50 to 500 nM	–	–	–	–	–
CC1=C(c2c(F)cc(F)cc2F)[C@H](c2ccc(OCCN3CCCC4(CCN(c5ccc(C6=N[C@@H](C)c7nnc(C)n7-c7sc(C)c(C)c76)cc5)CC4)C3)cc2)Oc2ccc(O)cc21 [V-5]	50 to 500 nM	500 to 2500 nM	50 to 500 nM	–	–	–	–	–
CC1=C(c2c(F)cc(F)cc2F)C(c2ccc(OCCN3CCCN(c4ccc(C5=N[C@@H](C)c6nnc(C)n6-c6sc(C)c(C)c65)cc4)CC3)cc2)Oc2ccc(O)cc21 (stereo partly drawn) [V-6]	50 to 500 nM	500 to 2500 nM	50 to 500 nM	–	–	–	–	–
